The results in this text go back to PMC4942689, “Deciphering the function of the CNGB1b subunit in olfactory CNG channels” (Scientific Reports, 2016).

What is called EC50 is the concentration needed to bring the measured effect to its halfway point.

One experiment concerns the target T1, CNGA2RE:B1b (Rattus norvegicus, UniProt A0A8I5ZN27+Q00195, R538E).
T1 construct: expressed in transfected cells; host or cells: Xenopus laevis oocytes (cRNA injection), excised patches
The experiment can be described thus: Ligand binding, confocal patch-clamp fluorometry. Details: key to Ligand binding to CNGB1b: +: ligand binding to the respective modulatory subunits was either observed or not; −: ligand binding to the respective modulatory subunits was either observed or not. The settings on record: for Ligand binding to CNGB1b: construct CNGA2RE:B1b. The source says: (§1) The channels to be studied were expressed in Xenopus oocytes. We first tested the subunit composition in our channels when coexpressing different combinations of subunits by single-channel recordings. For CNGA2:A4, CNGA2:B1b and CNGA2:A4:B1b channels we exclusively obtained the specific and easily distinguishable single-channel activity reported earlier when injecting respective amounts of RNA[7][13]. We therefore assumed that the channels formed had always the expected subunit composition. The specific binding of cyclic nucleotides and the activation of the CNG channels were measured in parallel by means of confocal patch-clamp fluorometry in excised patches, using fluorescent cyclic nucleotide derivatives. The method has been described previously.
To study ligand binding to the CNGB1b subunit selectively, the binding domain of the CNGA2 subunits was disabled by either the point mutation R538E (red crosses in the cartoons) or T539M (blue crosses in the cartoons)[13][20]. […] To this end, CNGB1b was coexpressed with CNGA2RE.
(§2) The ligand binding was measured in macropatches by patch-clamp fluorometry[41][42] combined with confocal microscopy. […] Recordings were performed with an LSM 510 or 710 confocal microscope (Zeiss, Jena, Germany) and were triggered by the ISO3 software (MFK, Niedernhausen, Germany). To distinguish between the fluorescence of the unbound ligands from that of the bound ligands, a second dye, DY647 (Dyomics, Jena, Germany), was added to the bath solution. The 543-nm and 633-nm lines of a He-Ne laser were used to excite fcAMP/fcGMP and DY647, respectively. The method of confocal patch-clamp fluorometry has been described in detail previously.
A general note: Patch clamp records ionic current or voltage across a cell membrane.

For the next experiment, the target named is T2, CNGA2:A4:B1b channels (Rattus norvegicus, UniProt A0A8I5ZN27+Q00195+Q64359).
T2 construct: expressed in transfected cells; host or cells: Xenopus laevis oocytes (cRNA injection 2:1:1), excised inside-out patches
T2 sequence (Q00195 whole entry): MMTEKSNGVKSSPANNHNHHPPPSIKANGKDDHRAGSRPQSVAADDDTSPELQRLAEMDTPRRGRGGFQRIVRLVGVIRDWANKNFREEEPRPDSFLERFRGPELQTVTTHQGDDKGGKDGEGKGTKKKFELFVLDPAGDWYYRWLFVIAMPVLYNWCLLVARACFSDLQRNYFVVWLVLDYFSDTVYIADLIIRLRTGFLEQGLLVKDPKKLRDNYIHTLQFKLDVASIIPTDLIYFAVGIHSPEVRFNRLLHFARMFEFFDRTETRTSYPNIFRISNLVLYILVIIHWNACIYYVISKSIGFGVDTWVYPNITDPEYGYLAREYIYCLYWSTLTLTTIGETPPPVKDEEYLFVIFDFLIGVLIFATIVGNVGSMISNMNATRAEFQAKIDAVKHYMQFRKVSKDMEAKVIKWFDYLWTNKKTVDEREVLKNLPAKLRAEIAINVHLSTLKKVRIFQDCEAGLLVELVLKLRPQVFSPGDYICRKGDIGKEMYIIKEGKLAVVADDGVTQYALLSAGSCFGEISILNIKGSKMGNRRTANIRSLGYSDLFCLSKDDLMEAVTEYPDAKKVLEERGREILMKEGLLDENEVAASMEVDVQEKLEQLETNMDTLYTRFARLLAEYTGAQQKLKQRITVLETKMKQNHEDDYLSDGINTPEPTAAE
T2 sequence (Q64359 whole entry): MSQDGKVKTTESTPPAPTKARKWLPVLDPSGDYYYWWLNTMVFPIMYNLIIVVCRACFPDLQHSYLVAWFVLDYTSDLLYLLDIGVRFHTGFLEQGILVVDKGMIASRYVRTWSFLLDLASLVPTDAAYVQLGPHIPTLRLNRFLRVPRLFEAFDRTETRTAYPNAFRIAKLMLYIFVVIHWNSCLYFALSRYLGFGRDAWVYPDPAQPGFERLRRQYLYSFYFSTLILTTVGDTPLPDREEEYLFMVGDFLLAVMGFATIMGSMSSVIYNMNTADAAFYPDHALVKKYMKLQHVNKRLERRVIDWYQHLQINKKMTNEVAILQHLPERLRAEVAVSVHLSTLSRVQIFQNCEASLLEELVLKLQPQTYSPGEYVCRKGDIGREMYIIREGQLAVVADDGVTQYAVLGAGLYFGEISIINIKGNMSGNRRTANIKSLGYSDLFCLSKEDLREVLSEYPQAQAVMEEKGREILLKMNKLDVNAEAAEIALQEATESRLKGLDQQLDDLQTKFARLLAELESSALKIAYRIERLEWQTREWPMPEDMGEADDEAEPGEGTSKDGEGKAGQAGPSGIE
T2 sequence (A0A8I5ZN27 1-858 isoform A0A8I5ZN27-2): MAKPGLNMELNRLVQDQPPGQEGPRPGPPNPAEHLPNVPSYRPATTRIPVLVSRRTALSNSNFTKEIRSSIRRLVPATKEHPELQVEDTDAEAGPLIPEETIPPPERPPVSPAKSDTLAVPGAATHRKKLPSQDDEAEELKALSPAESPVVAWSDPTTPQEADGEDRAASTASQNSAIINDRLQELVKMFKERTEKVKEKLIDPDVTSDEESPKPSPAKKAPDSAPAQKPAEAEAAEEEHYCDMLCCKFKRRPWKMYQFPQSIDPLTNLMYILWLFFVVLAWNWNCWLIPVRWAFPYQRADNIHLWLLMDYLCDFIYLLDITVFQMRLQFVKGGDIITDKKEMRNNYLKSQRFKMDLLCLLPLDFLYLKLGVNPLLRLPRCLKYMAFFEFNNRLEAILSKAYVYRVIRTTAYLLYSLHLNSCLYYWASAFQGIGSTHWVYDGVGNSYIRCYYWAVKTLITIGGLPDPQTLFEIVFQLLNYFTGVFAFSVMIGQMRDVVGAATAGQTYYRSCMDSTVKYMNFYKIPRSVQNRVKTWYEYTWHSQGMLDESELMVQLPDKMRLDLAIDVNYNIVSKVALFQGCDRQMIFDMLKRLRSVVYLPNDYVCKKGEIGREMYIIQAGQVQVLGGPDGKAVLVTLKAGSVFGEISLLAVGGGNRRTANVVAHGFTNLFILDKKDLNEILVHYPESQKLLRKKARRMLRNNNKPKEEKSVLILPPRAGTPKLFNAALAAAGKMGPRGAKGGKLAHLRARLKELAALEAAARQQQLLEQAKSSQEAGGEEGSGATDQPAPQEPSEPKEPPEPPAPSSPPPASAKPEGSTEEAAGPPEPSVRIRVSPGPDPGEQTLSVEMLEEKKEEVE
The experiment can be described thus: Concentration-activation relationship, inside-out patch-clamp. Format: biochemical. On the procedure:
(§3) Patch-clamp experiments were performed using an Axopatch 200B amplifier (Molecular Devices LLC, CA, U.S.A.) in the inside-out configuration. The patch pipettes for recording of macroscopic currents were pulled from borosilicate glass tubing (outer diameter 2.0 mm, inner diameter 1.0 mm; Hilgenberg GmbH, Germany). The initial resistance was 0.7–1.3 MΩ. The patches were formed as pushed inside-out patches. […] Cyclic nucleotide concentration jumps were performed using a double-barreled glass pipette mounted on a piezo-driven device. Intracellular (bath) and extracellular (pipette) solutions contained (mM) 150 KCl, 1 EGTA, 5 Hepes, pH = 7.4 with KOH. […] Currents in the absence of the cyclic nucleotide were subtracted. All patches included in this study were first tested for channel expression in the presence of a saturating ligand concentration. Only patches with large current, i.e. a large number of channels, were included in our statistics. The currents were measured at +10 mV or, if mentioned, at +100 mV.
Fits of equations to data points were performed with the 8.1G® software (OriginLab Corporation, Northampton, U.S.A.). Concentration-activation relationships were obtained by relating the actual current amplitude, I, to the maximum current amplitude elicited by a saturating concentration of ligand, Imax, and plotting this ratio as function of the ligand concentration, x. The concentration-activation data were fitted using the Hill equation
where EC50 is the ligand concentration of half maximum effect and H the Hill coefficient.
In fHcAMP the dye DY547 is coupled to
(b) Concentration-activation relationships of the CNGA2:A4:B1b channels activated by either
The currents were recorded […]

Experiment [1] has as its target T3, CNGA2RE:A4RE:B1b (Rattus norvegicus, UniProt A0A8I5ZN27+Q00195+Q64359, R430E/R538E).
T3 construct: expressed in transfected cells; host or cells: Xenopus laevis oocytes (cRNA injection), excised inside-out patches
Description: Concentration-activation relationship and activation by fluorescent ligands, patch-clamp. Format: biochemical. The following applies: 2 μM fHcAMP; of the saturating activation measured with 4 mM cGMP. On the procedure: as §3, with “In order to determine the apparent affinity of the modulatory subunits in heterotetrameric CNGA2:A4:B1b channels for cGMP, we coexpressed each of them with disabled neighbored subunits, generating themselves activation effects only at much higher ligand concentrations. In case of two well-separated current components, this would allow us to determine the EC50 value for the CNGB1b and CNGA4 subunit in functional heterotetrameric channels. Patch-clamp” for “Patch-clamp”, “The initial resistance was 0.7–1.3 MΩ.” left out, “mV. Fits of equations to data points were performed with the 8.1G® software (OriginLab Corporation, Northampton, U.S.A.). Concentration-activation relationships were obtained by relating the actual current amplitude, I, to the maximum current amplitude elicited by a saturating concentration of ligand, Imax, and plotting this ratio as function of the ligand concentration, x.” for “mV.”

Experiment [2] has as its target T4, CNGA2RE:A4RE:B1bRE (Rattus norvegicus, UniProt A0A8I5ZN27+Q00195+Q64359, R1106E/R430E/R538E).
T4 construct: expressed in transfected cells; host or cells: Xenopus laevis oocytes (cRNA injection), excised inside-out patches
The experiment can be described thus: Channel activation during confocal patch-clamp fluorometry. The settings on record: 2 μM fHcAMP; binding domain in CNGB1b also disabled. The format is biochemical. On the procedure: (§4) To verify the hypothesis that the CNGB1b subunit in CNGA2:A4:B1b channels binds cyclic nucleotides, we coexpressed CNGB1b with CNGA4RE and either CNGA2RE or CNGA2TM and measured ligand binding in the presence of 10 μM fcGMP. […] To verify the specificity of the binding to the CNGB1b subunit in these heterotetrameric channels, we coexpressed the CNGB1bRE subunit with CNGA2RE and CNGA4RE.
Figure 2 In a CNGA2:A4 background the CNGB1b subunit binds both fcGMP and fHcAMP and activates the channel. (a) Binding of fcGMP to the CNGB1b subunit evokes channel activation. Binding of fcGMP to CNGB1b was observed when coexpressed with either CNGA2RE:A4RE or CNGA2TM:A4RE (upper diagram). […] (b) Binding of fHcAMP to CNGB1b was observed when coexpressed with both CNGA2RE and CNGA4RE. When disabling the binding domain of CNGB1b, the fluorescence intensity was nearly abolished. Correspondingly, CNGA2RE:A4RE:B1b channels were activated by the ligand only when the CNGB1b binding site was available.
as §3, §2

Experiment [3] has as its target T3, CNGA2RE:A4RE:B1b. Description: Ligand binding, confocal patch-clamp fluorometry. Details: key to Ligand binding to CNGA4 / Ligand binding to CNGB1b: +: ligand binding to the respective modulatory subunits was either observed or not; −: ligand binding to the respective modulatory subunits was either observed or not.
Source text: as §1, §4, §2

Experiment [4] concerns the target T4, CNGA2RE:A4RE:B1bRE. The experiment can be described thus: Ligand binding, confocal patch-clamp fluorometry. Details: key to Ligand binding to CNGA4 / Ligand binding to CNGB1b: +: ligand binding to the respective modulatory subunits was either observed or not; −: ligand binding to the respective modulatory subunits was either observed or not.
Source text: as §1, §4, §2

T3 sequence (Q00195 whole entry R538E): as the sequence (Q00195 whole entry) above, with R538E counted along it
T3 sequence (Q64359 whole entry R430E): as the sequence (Q64359 whole entry) above, with R430E counted along it
T3 sequence (A0A8I5ZN27 1-858 isoform A0A8I5ZN27-2, stated change not applied): as the sequence (A0A8I5ZN27 1-858 isoform A0A8I5ZN27-2) above
T4 sequence (Q00195 whole entry R538E): as the sequence (Q00195 whole entry) above, with R538E counted along it
T4 sequence (Q64359 whole entry R430E): as the sequence (Q64359 whole entry) above, with R430E counted along it
T4 sequence (A0A8I5ZN27 1-858 isoform A0A8I5ZN27-2 R657E): as the sequence (A0A8I5ZN27 1-858 isoform A0A8I5ZN27-2) above, with R657E counted along it
T1 sequence (Q00195 whole entry R538E): as the sequence (Q00195 whole entry) above, with R538E counted along it
T1 sequence (A0A8I5ZN27 1-858 isoform A0A8I5ZN27-2, stated change not applied): as the sequence (A0A8I5ZN27 1-858 isoform A0A8I5ZN27-2) above

With 8-[DY-547]-AET-cAMP [fcAMP], the “ligand binding to the CNGB1b subunit (in words)” value at CNGA2RE:B1b (10 μM, CNGB1b coexpressed with CNGA2RE) was “no ligand binding”. The “Ligand binding to CNGB1b” value at CNGA2RE:B1b (10 μM) is “−”.

With 8-[DY-547]-AHT-cAMP [fHcAMP], on CNGA2:A4:B1b channels (CNGA2:A4:B1b, steady-state, +10 mV, equation (1), 7-10 patches), it took 590 nM to reach a half-maximal effect (EC50). In addition, on CNGA2:A4:B1b channels (Hill coefficient, CNGA2:A4:B1b, steady-state, +10 mV), the H was 1.2. Moreover, at CNGA2:A4:B1b channels (relative to fcAMP), the “potency to open CNGA2:A4:B1b channels compared to fcAMP” value was “eight times higher potency”. Also, the channel activation at CNGA2RE:A4RE:B1b [1] is recorded as 3.1 ± 0.7%. The activation entry at CNGA2RE:A4RE:B1bRE [2] is “abolished”. Moreover, the “Ligand binding to CNGB1b” value is given as “−” at CNGA2RE:B1b (2 μM); “+” at CNGA2RE:A4RE:B1b [3] (2 μM, construct CNGA2RE:A4RE:B1b); “−” at CNGA2RE:A4RE:B1bRE [4] (2 μM, construct CNGA2RE:A4RE:B1bRE). Besides, the “binding to the CNGB1b subunit (in words)” value on CNGA2RE:B1b (fHcAMP, CNGA2RE:B1b channels) was “did not detectably bind”; on CNGA2RE:A4RE:B1b [3] (2 μM fHcAMP, CNGA2RE:A4RE:B1b channels), “binds”; on CNGA2RE:A4RE:B1bRE [4] (2 μM fHcAMP, binding domain in CNGB1b also disabled), “abolished”.
